Molecules are shown by their SMILES. Read-outs that look alike come from different tables or passages of the source.

Series [1] addresses T1, LXRβ (Homo sapiens, UniProt P55055).
T1 construct: LXRβ (amino acids 156-461); expressed in transfected cells; host or cells: HEK293
T1 sequence (P55055 156-460): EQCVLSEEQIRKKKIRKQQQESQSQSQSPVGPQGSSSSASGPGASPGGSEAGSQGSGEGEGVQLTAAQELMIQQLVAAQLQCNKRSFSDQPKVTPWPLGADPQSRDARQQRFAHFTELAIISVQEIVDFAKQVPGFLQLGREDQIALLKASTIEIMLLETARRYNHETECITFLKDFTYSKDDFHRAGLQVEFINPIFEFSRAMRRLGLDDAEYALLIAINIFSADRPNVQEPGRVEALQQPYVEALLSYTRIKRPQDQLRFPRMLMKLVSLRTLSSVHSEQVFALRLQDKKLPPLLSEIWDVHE
Description: LXR Gal4 reporter transient transfection assay (mammalian two-hybrid, HEK293), LXRβ. The format is cell-based. Particulars: ligand-binding domain (LBD) of LXRβ, HEK293; read-out: LBD-M2H Gal4β. The method, boiled down:
(§1)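 Mammalian two-hybrid read-out of LXR–coactivator (SRC1) or corepressor (NCoR) interaction: firefly luciferase under GAL4 response elements, normalised via Renilla co-transfection. LXRα/β full-length or LBD fusions expressed transiently in HEK293; compounds (final DMSO ≤0.2%) given 4 h after transfection for 16 h before lysis.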

Series [2] addresses T2, GST-LXRβ ligand-binding domain (Homo sapiens, UniProt P55055).
T2 construct: amino acids 156-461; NP009052; made in house; host or cells: E. coli
T2 sequence (P55055 156-460 limits assumed): T1 sequence (P55055 156-460)
Description: TR-FRETβ activity assay (NCoA3 coactivator peptide recruitment). It counts as biochemical. Particulars: 1 μM 24(S)-25-epoxycholesterol prestimulation. A digest of the protocol: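 Inverse-agonist format, with LXR prestimulated by 1 μM 24(S)-25-epoxycholesterol in pH 6.8 Tris/HCl, 240 mM KCl, BSA and Triton. Ten concentrations from 50 μM to 0.002 μM were equilibrated 1 h at 4° C with 76 nM GST-LXRβ LBD and 400 nM biotin-NCoA3 peptide. Peptide recruitment detected by 665/615 nm TR-FRET.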

Series [3] deals with T3, LXRα (Homo sapiens, UniProt Q13133).
T3 construct: expressed in transfected cells; host or cells: HEK293
T3 sequence (Q13133 155-447): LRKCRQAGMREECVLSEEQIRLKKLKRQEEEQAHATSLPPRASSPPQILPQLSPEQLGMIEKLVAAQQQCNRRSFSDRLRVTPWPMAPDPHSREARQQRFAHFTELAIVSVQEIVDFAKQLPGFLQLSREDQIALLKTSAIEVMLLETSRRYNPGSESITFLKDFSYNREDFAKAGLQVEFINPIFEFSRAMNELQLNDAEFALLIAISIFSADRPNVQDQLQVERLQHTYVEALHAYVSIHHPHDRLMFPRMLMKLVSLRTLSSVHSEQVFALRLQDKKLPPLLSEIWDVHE
Kind of series: LXR Gal4 reporter transient transfection assay (mammalian two-hybrid, HEK293), LXRα. The format is cell-based. To be noted: ligand-binding domain (LBD) of LXRα, HEK293; read-out: LBD-M2H Gal4α. On the procedure:
(§2) LXRα and LXRβ activity status was determined via detection of interaction with coactivator and corepressor proteins in mammalian two-hybrid experiments (M2H). For this, via transient transfection the full length (FL) proteins of LXRα (amino acids 1-447; NP005684; SEQ ID NO:1) or LXRβ-(amino acids 1-461; NP009052; SEQ ID NO:2) or the ligand-binding domains (LBD) of LXRα (amino acids 155-447 SEQ ID NO:3) or LXRβ (amino acids 156-461; SEQ ID NO:4) were expressed from pCMV-AD (Stratagene) as fusions to the transcriptional activation domain of NFkB. As cofactors, domains of either the steroid receptor coactivator 1 (SRC1; amino acids 552-887; SEQ ID NO:5) or of the corepressor NCoR (amino acids 1906-2312; NP006302; SEQ ID NO:6) were expressed as fusions to the DNA binding domain of the yeast transcription factor GAL4 (from pCMV-BD; Stratagene). Interaction was monitored via activation of a coexpressed Firefly Luciferase Reporter gene under control of a promoter containing repetitive GAL4 response elements (vector pFRLuc; Stratagene). Transfection efficiency was controlled via cotransfection of constitutively active pRL-CMV Renilla reniformis luciferase reporter (Promega). HEK293 cells were grown in minimum essential medium (MEM) with 2 mM L-glutamine and Earle's balanced salt solution supplemented with 8.3% fetal bovine serum, 0.1 mM non-essential amino acids, 1 mM sodium pyruvate, at 37° C. in 5% CO2. 3.5×10^4 cells/well were plated in 96-well cell culture plates in growth medium supplemented with 8.3% fetal bovine serum for 16-20 h to ˜90% confluency. For transfection, medium was taken off and LXR and cofactor expressing plasmids as well as the reporter plasmids are added in 30 μL OPTIMEM/well including polyethylene-imine (PEI) as vehicle. Typical amounts of plasmids transfected/well: pCMV-AD-LXR (5 ng), pCMV-BD-cofactor (5 ng), pFR-Luc (100 ng), pRL-CMV (0.5 ng). Compound stocks were prepared in DMSO, prediluted in MEM to a total volume of 120 μL, and added 4 h after addition of the transfection mixture (final vehicle concentration not exceeding 0.2%). Cells were incubated for additional 16 h, lysed for 10 min in 1×Passive Lysis Buffer (Promega) and Firefly and Renilla luciferase activities were measured sequentially in the same cell extract using buffers containing D-luciferine and coelenterazine, respectively. Measurements of luminescence were done in a BMG-luminometer.
(§3) The potencies of Compound 21/3 and its analog, Compound pre-6/3, against LXRα and LXRβ were evaluated in biochemical binding assays, cellular mammalian two-hybrid (M2H) interaction assays evaluating nuclear receptor co-repressor (NCOR) recruitment, and cellular reporter assays evaluating transcriptional activity (Table 5).

A short description of series [4]: Pharmacokinetics in mice after single oral dosing (blood/plasma and liver exposure). It counts as in vivo. Particulars: 20 mg/kg single oral dose, time point 4 h. Here is the method: The pharmacokinetics of the compounds was assessed in mice after single dosing and oral administrations. Blood/plasma and liver exposure was measured via LC-MS.
The study design was as follows: • Animals: C57/bl6/J (Janvier) males • Diet: standard rodent chow • Dose: 20 mg/kg • Animal handling: animals were withdrawn from food at least 12 h before administration • Design: single dose oral administration, n=3 animals per group • Sacrifice: at stated time point (4, 12 or 24 h) after administration • Bioanalytics: LC-MS of liver and blood/plasma samples

In series [5] the target is T4, LXRα (Homo sapiens, UniProt Q13133).
T4 sequence (Q13133 1-447): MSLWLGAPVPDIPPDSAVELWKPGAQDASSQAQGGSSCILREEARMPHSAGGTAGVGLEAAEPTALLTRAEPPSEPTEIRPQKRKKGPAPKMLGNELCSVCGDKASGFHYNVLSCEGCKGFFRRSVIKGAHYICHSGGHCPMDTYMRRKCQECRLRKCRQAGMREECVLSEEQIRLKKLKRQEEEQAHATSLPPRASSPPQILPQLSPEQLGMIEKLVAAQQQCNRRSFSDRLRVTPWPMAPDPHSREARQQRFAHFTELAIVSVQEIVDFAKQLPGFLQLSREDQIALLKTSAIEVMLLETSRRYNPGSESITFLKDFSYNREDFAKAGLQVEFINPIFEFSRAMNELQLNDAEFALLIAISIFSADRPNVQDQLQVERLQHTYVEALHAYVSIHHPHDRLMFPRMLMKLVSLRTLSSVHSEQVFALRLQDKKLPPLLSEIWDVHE
Kind of series: LXR Gal4 reporter transient transfection assay (mammalian two-hybrid, HEK293), LXRα. It counts as cell-based. Further details: expressed in transfected cells; host or cells: HEK293. To be noted: full length (FL) LXRα, HEK293; read-out: FL-M2H Gal4α. On the procedure: as §2, §3

Series [6] concerns the target T5, LXRβ (Homo sapiens, UniProt P55055).
T5 sequence (P55055 1-460): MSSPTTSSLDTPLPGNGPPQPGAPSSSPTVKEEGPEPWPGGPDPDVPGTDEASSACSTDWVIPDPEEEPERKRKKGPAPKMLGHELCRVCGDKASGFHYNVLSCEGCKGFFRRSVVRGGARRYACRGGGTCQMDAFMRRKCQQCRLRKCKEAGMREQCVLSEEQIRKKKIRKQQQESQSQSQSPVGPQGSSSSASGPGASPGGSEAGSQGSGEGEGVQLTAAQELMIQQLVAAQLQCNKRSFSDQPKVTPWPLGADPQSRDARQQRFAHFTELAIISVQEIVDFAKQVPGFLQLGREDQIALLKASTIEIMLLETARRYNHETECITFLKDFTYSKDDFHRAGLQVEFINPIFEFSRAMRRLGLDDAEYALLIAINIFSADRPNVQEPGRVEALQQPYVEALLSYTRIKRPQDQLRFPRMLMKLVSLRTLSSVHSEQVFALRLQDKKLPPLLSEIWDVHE
Kind of series: LXR Gal4 reporter transient transfection assay (mammalian two-hybrid, HEK293), LXRβ. It counts as cell-based. Further details: LXRβ (amino acids 156-461); expressed in transfected cells; host or cells: HEK293. To be noted: full length (FL) LXRβ, HEK293; read-out: FL-M2H Gal4β. A digest of the protocol: as §1

As for `O=S(=O)(c1ccc(Cl)cc1)n1c(-c2cccs2)c(-c2ccsc2Cl)c2ccccc21` [Compound 20], the EC50 at LXRβ [1] was less than 0.1 µM; in series [2], 0.1 to 1 µM; at LXRα [3] it was less than 0.1 µM.
In the case of `N#Cc1sccc1-c1c(-c2cccs2)n(S(=O)(=O)c2ccc(Cl)cc2)c2ccc(OCC(=O)O)cc12` [Compound 15], the EC50 on LXRβ [1] was greater than 10 µM; in series [2], greater than 10 µM; on LXRα [3] it was 1 to 10 µM.
For `N#Cc1sccc1-c1c(-c2cccs2)n(S(=O)(=O)c2ccc(Cl)cc2)c2ccc(O)cc12` [Compound 13], the figures for the EC50 (at LXRβ [1]; in series [2]; at LXRα [3]) were less than 0.1 µM, 0.1 to 1 µM and less than 0.1 µM, respectively.
With `Cc1cccc(S(=O)(=O)n2c(-c3cccc(N4CC(C(=O)O)C4)c3)c(-c3ccsc3C#N)c3cc(F)ccc32)c1` [3/8], the EC50 at LXRβ [1] was less than 0.1 µM; in series [2], 1 to 10 µM; at LXRα [3], 0.1 to 1 µM.
On the same counts, the results for `Cc1ccc(S(=O)(=O)n2c(-c3cccc(-c4cccc(C(=O)NS(C)(=O)=O)c4)c3)c(-c3ccsc3C#N)c3ccccc32)cc1` [Compound 32] are 0.1 to 1 µM, 0.1 to 1 µM and 0.1 to 1 µM.
`Cc1ccc(S(=O)(=O)n2c(-c3cccc(C4CC4C(=O)O)c3)c(-c3ccsc3C#N)c3ccccc32)cc1` (stereo not drawn) [Compound 30]: the values for the EC50 (at LXRβ [1]; in series [2]; at LXRα [3]) were less than 0.1 µM, 0.1 to 1 µM and less than 0.1 µM, respectively.
Consider `N#Cc1sccc1-c1c(-c2cccs2)n(S(=O)(=O)c2ccc(Cl)cc2)c2ccc(C(=O)O)cc12` [Compound 23], for which the EC50 at LXRβ [1] was 0.1 to 1 µM; in series [2], greater than 10 µM; at LXRα [3], 0.1 to 1 µM.
Regarding `Cc1ccc(S(=O)(=O)n2c(-c3cccc(-c4ccc(CN5CCN(C)CC5)cc4)c3)c(-c3ccsc3C#N)c3cc(F)ccc32)cc1` [Compound 8], the figures for the EC50 (in series [2]; at LXRα [5]; on LXRβ [6]) were 0.1 to 1 µM, 0.1 to 1 µM and less than 0.1 µM, respectively. Also, in series [4], the blood/plasma exposure entry is “B (300 nM to ≤1 μM)”. Also, the liver exposure result in series [4] is reported as “D (>3 μM)”. Besides, the liver/blood ratio entry in series [4] is reported as “B (3 to ≤10)”.
With `N#Cc1sccc1-c1c(-c2cncs2)n(S(=O)(=O)c2ccc(Cl)cc2)c2ccccc12` [Compound 25], the EC50 at LXRβ [1] is less than 0.1 µM; in series [2], 1 to 10 µM; at LXRα [3] it was 0.1 to 1 µM.
With `COc1ccc(S(=O)(=O)n2c(-c3ccc(CCC(N)=O)cc3)c(-c3ccsc3C#N)c3ccccc32)cc1` [Compound 28], the results for the EC50 (at LXRβ [1]; in series [2]; at LXRα [3]) were 0.1 to 1 µM, 1 to 10 µM and 1 to 10 µM, respectively.
Regarding `COc1ccc(S(=O)(=O)n2c(-c3cccs3)c(-c3ccsc3C#N)c3ccccc32)cc1` [20/14], the EC50 is less than 0.1 µM at LXRβ [1], 0.1 to 1 µM in series [2] and less than 0.1 µM at LXRα [3].

These data come from US20260083704A1, “LXR MODULATORS WITH BICYCLIC CORE MOIETY FOR TREATING DYSLIPIDEMIAS” (OrsoBio, Inc., priority 2022, published 2026).
